According to PMC2568955, “Structures of SRP54 and SRP19, the Two Proteins that Organize the Ribonucleic Core of the Signal Recognition Particle from Pyrococcus furiosus” (PLoS ONE, 2008):

Target: T1, Pfu-SRP54 (Pyrococcus furiosus, UniProt Q8U070)
T1 construct: full-length, pET28b, thrombin-cleavable His6 tag removed, E. coli BL21(DE3)-Rosetta2; free of SRP RNA and SRP19; two monomers per asymmetric unit (non-crystallographic dimer); finger loop L346-I365 disordered
T1 sequence (Q8U070 1-443): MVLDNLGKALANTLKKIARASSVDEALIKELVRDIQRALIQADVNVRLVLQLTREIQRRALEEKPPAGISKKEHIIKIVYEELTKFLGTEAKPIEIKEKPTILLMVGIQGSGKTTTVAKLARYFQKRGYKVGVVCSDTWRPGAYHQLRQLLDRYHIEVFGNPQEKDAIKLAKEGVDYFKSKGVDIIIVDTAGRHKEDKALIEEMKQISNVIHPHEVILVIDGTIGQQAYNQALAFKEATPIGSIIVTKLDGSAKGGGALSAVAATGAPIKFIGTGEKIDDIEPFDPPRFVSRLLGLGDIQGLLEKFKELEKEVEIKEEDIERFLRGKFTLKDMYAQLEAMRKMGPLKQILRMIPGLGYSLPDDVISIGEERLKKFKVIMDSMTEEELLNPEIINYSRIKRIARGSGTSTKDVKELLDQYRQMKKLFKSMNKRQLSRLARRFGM
Experiment: X-ray crystal structure, […] Å
Type: binding
Conditions: co-crystallised with 10 mM GDP; 1.0-1.3 M lithium sulfate, 100 mM sodium acetate pH 5.0; room temperature; GTPase active site in G domain, no clear Mg ion

Q: With `Nc1nc2c(ncn2[C@@H]2O[C@H](COP(=O)(O)OP(=O)(O)O)[C@@H](O)[C@H]2O)c(=O)[nH]1` [GDP] as the compound, how does the “X-ray crystal structure, 2.5 Å” value read?
A: Its value is “Pfu-SRP54 was co-crystallized in presence of GDP, and the nucleotide is clearly identified”.
